ChEMBL document CHEMBL4396923, “Applications of amide isosteres in medicinal chemistry” (Bioorg Med Chem Lett, 2019)
Residues, ends and D or L forms follow the SMILES beside them.

Key:
[1] = Half life in human serum; format: ADME, cell-free
[2] = biological target: Delta-type opioid receptor (Homo sapiens, UniProt P41143)
Description: Agonist activity at delta opioid receptor (unknown origin) expressed in CHO cells

Beta-secretase 1 = Beta-secretase 1 (Homo sapiens, UniProt P56817); test: Inhibition of BACE-1 (unknown origin)
[3] = biological target: Kappa-type opioid receptor (Homo sapiens, UniProt P41145); test: Agonist activity at kappa opioid receptor (unknown origin) expressed in CHO cells; format: cell-based
Mu-type opioid receptor = Mu-type opioid receptor (Homo sapiens, UniProt P35372); test: Agonist activity at mu opioid receptor (unknown origin) expressed in CHO cells; format: cell-based
[4] = Stability in human plasma assessed as parent compound remaining at 4 hrs; format: ADME, cell-free; conditions: read-out: Stability
[5] = Stability in rat plasma assessed as parent compound remaining at 4 hrs; format: ADME, cell-free; conditions: read-out: Stability
[6] = biological target: D(2) dopamine receptor (Homo sapiens) (UniProt P14416); test: Agonist activity at human D2 receptor expressed in NIH/3T3 cells co-expressing beta-galactosidase assessed as increase in beta-galactosidase activity at 10 uM incubated for 5 days by spectrophotometry relative to control; format: cell-based
[7] = biological target: angiotensin-converting enzyme (Homo sapiens, UniProt P12821); test: Drug metabolism assessed as angiotensin converting enzyme (unknown origin)-mediated Gly3-Phe4 cleavage by measuring half life; format: ADME
Hamster = test: Protection against HLE-induced acute lung damage in hamster; format: functional; conditions: Cricetinae

Chain of Delta-type opioid receptor (P41143 whole entry): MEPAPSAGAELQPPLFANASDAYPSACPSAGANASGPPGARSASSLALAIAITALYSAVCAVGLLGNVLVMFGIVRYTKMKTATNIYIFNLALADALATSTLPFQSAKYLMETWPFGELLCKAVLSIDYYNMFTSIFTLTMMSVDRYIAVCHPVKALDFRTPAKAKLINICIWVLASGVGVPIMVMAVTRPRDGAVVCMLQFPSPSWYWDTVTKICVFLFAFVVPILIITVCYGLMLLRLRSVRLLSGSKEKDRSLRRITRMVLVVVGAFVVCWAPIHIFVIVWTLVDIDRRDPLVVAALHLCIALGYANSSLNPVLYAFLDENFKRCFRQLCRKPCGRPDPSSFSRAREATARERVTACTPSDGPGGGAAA
Chain of Mu-type opioid receptor (P35372 whole entry): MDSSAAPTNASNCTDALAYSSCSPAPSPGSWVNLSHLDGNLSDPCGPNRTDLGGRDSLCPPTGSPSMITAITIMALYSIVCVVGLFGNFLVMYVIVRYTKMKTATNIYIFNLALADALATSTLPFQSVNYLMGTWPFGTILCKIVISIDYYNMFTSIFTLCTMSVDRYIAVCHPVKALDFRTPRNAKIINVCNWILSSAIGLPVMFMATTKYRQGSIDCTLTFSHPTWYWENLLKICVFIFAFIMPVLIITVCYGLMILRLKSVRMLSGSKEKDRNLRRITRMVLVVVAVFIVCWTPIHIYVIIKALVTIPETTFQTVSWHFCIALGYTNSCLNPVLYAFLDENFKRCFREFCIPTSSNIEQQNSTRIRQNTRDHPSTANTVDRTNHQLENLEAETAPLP
Chain of angiotensin-converting enzyme (P12821 whole entry): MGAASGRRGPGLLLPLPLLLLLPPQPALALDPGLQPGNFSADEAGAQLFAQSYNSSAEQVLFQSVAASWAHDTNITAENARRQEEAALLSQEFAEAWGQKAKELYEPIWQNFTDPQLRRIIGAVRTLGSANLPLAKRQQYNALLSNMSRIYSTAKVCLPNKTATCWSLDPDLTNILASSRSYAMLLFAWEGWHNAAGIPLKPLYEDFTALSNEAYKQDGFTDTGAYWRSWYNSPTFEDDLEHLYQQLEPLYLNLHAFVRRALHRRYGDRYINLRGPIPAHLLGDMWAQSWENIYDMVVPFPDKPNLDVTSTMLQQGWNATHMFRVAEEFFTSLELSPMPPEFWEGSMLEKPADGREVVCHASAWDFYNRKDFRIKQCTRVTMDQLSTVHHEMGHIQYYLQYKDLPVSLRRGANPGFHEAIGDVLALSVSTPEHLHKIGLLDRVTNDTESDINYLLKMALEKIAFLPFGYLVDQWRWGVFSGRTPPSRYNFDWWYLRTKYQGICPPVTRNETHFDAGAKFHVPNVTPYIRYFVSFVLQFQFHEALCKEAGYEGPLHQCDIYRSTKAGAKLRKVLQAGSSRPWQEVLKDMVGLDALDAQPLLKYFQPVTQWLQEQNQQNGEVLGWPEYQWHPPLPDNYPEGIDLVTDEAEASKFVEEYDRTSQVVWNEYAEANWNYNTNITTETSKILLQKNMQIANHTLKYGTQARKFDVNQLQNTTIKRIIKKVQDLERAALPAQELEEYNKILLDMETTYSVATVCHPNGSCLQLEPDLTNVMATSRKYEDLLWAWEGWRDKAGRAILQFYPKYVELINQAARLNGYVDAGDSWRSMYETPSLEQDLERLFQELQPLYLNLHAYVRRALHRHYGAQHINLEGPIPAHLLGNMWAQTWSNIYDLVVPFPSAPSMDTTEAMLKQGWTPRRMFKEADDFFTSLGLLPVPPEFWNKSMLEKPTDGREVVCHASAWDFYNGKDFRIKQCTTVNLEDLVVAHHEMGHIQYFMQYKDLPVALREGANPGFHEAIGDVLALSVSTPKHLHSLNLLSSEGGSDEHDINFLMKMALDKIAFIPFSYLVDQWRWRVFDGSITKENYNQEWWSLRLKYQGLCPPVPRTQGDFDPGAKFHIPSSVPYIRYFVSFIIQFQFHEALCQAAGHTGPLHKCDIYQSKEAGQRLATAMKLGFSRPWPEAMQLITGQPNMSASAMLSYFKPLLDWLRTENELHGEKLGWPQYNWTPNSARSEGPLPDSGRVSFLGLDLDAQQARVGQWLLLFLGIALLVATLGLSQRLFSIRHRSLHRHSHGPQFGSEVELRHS
Chain of D(2) dopamine receptor (Homo sapiens) (P14416 whole entry): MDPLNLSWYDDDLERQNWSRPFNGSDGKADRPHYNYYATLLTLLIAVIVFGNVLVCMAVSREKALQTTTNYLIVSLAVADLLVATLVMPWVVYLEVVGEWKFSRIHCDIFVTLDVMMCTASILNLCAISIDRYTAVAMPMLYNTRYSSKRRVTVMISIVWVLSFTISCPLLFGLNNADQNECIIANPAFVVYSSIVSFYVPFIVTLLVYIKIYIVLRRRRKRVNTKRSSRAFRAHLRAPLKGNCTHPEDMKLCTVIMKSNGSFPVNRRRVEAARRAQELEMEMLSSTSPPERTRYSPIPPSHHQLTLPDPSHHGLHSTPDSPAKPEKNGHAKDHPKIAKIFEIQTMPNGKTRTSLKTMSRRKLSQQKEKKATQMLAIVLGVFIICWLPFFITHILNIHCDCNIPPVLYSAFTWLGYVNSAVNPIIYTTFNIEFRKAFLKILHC
Chain of Kappa-type opioid receptor (P41145 whole entry): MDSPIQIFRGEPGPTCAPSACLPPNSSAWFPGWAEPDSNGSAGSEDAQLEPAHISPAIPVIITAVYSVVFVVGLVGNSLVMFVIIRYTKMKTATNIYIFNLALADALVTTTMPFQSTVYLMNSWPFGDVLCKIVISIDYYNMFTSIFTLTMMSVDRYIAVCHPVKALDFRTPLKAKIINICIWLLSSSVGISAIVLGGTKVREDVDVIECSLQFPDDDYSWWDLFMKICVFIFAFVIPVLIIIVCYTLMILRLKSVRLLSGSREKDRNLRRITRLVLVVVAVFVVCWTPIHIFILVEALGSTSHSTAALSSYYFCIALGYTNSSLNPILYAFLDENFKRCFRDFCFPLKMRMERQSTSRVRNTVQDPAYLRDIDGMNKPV
Chain of Beta-secretase 1 (P56817 whole entry): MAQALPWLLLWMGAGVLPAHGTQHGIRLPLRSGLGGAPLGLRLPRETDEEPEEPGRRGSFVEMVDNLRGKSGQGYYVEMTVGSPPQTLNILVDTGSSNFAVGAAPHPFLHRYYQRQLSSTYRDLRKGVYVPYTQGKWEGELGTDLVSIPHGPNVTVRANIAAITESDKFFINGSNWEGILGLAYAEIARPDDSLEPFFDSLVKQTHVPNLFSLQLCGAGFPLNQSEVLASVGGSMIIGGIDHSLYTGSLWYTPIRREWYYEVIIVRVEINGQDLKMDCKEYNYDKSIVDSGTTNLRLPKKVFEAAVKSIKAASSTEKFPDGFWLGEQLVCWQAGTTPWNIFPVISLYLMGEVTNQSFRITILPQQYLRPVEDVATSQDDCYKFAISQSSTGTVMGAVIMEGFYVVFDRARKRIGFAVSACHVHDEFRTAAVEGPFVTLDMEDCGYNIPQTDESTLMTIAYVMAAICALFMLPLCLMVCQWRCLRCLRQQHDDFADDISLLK

With `CC(C)C[C@H](NC(=O)[C@H](Cc1ccccc1)NC(=O)CNC(=O)CNC1([C@@H](N)Cc2ccc(O)cc2)COC1)C(=O)O.O=C(O)C(F)(F)F` the half-life [1] was 3.2 h.
`CC(C)C[C@H](NC1([C@H](Cc2ccccc2)NC(=O)CNC(=O)CNC(=O)[C@@H](N)Cc2ccc(O)cc2)COC1)C(=O)O.O=C(O)C(F)(F)F` showed a half-life [1] of 0.433 h and a Ki [2] of 0.043 µM.
`COC(=O)[C@@H]1C[C@H](NC(=O)[C@@H](NC(=O)C[C@H](O)[C@H](Cc2cc(F)cc(F)c2)NC(=O)C(O)c2ccccc2-c2ccccc2)C(C)C)C[C@H](C(=O)OC)C1` (stereo partly drawn) showed an IC50 (Beta-secretase 1) of 0.12 µM.
For `Cc1ccc(C[C@H](N)/C(F)=C/CC(=O)NCC(=O)N[C@@H](Cc2ccccc2)C(=O)N[C@@H](CC(C)C)C(=O)O)cc1`, the EC50 [3] was greater than 0.01 µM, the EC50 (Mu-type opioid receptor) was 0.06 µM and the remaining at 4 h [4] was 68%. For the same molecule, the remaining at 4 h [5] was 76% and the EC50 [2] was 0.005 µM.
For `CC(C)C[C@H](NC(=O)[C@H](Cc1ccccc1)NC(=O)CNC1(CNC(=O)[C@@H](N)Cc2ccc(O)cc2)COC1)C(=O)O.O=C(O)C(F)(F)F`, the half-life [1] was 18 h.
`CC(C)C[C@H](NC(=O)[C@@H]1CCCN1)C(=O)NCC(N)=O` (H-Pro-Leu-Gly-NH2) gave an Activity [6] of 146%.
In the case of `CC(C)C[C@H](NC(=O)[C@H](Cc1ccccc1)NC(=O)CNC(=O)CNC(=O)[C@@H](N)Cc1ccc(O)cc1)C(=O)O` [ENKEPHALIN], the half-life [7] is reported as 2.17 h.
With `CC(C)C[C@H](NC(=O)[C@H](Cc1ccccc1)NC(=O)CNC(=O)CNC([C@@H](N)Cc1ccc(O)cc1)C(F)(F)F)C(=O)O` (mixture of isomers) the EC50 [2] was greater than 0.01 µM.
Work on `CC(C)C(NC(=O)Cn1c(-c2ccc(F)cc2)ncc(N)c1=O)C(=O)C(F)(F)F` (stereo not drawn) yielded an ED50 (Hamster) of 7.5 mg/kg.
`CC(C)C[C@H](NC(=O)[C@@H](/C=C(\F)CNC(=O)CNC(=O)[C@@H](N)Cc1ccc(O)cc1)Cc1ccccc1)C(=O)O` showed an EC50 [2] of 0.043 µM.
In the case of `CC(C)C[C@H](NC(=O)[C@@H](/C=C/CNC(=O)CNC(=O)[C@@H](N)Cc1ccc(O)cc1)Cc1ccccc1)C(=O)O`, the EC50 [2] is reported as 0.587 µM.
For `CC(C)C[C@H](NC(=O)[C@H](Cc1ccccc1)NC1(CNC(=O)CNC(=O)[C@@H](N)Cc2ccc(O)cc2)COC1)C(=O)O.O=C(O)C(F)(F)F`, the half-life [1] was 0.25 h and the Ki [2] was 0.157 µM.
